Assay results: ChEMBL document CHEMBL3751718, “Synthesis and biological evaluation of lipid-like 5-(2-hydroxyethyl)-4-methyl-1,3-thiazole derivatives as potential anticancer and antimicrobial agents” (Medchemcomm, 2015)
Active and inactive are the calls of the source. The calls are words filed in the database; no cut-off is given here.

How the values were obtained:
[1] = tested on: HT-1080; experiment: Induction of nitric oxide production in human HT1080 cells by Griess assay; assay type: functional; parameters: concentration or dose not given beside the values
[2] = tested on: Escherichia coli; experiment: Bactericidal activity against Escherichia coli MSCL 332 incubated for 24 hrs followed by colony transfer to agar plates for 24 hrs by colony counting based assay; assay type: functional; conditions: MSCL 332, 24 h, read-out: MBC99.9
[3] = tested on: Bacillus cereus; experiment: Bactericidal activity against Bacillus cereus MSCL 330 incubated for 24 hrs followed by colony transfer to agar plates for 24 hrs by colony counting based assay; assay type: functional; conditions: MSCL 330, 24 h, read-out: MBC99.9
[4] = tested on: Bacillus cereus; experiment: Antibacterial activity against Bacillus cereus MSCL 330 after 24 hrs by broth dilution method; assay type: functional; conditions: MSCL 330, 24 h
[5] = tested on: Escherichia coli; experiment: Antibacterial activity against Escherichia coli MSCL 332 at 5 mg/ml after 24 hrs by agar dish diffusion method; assay type: functional; conditions: for zone of inhibition at 5000 µg/mL: MSCL 332, 24 h, read-out: DIZ
[6] = Cytotoxicity against mouse NIH/3T3 cells assessed as cell viability at 6.25 to 50 ug/ml by neutral red-based assay; conditions: nih3t3
[7] = tested on: MG-22A; experiment: Cytotoxicity against mouse MG-22A cells assessed as cell viability at 6.25 to 50 ug/ml by crystal violet-based assay; assay type: functional; conditions: read-out: LC50 (the source's name)
[8] = Cytotoxicity against human HT1080 cells assessed as cell viability at 6.25 to 50 ug/ml by crystal violet-based assay; assay type: functional; conditions: HT-1080, read-out: LC50 (the source's name)
[9] = tested on: Candida albicans; experiment: Antifungal activity against Candida albicans MSCL 378 after 24 hrs by broth dilution method; assay type: functional; conditions: MSCL 378, 24 h
[10] = tested on: Candida albicans; experiment: Antifungal activity against Candida albicans MSCL 378 at 10 mg/ml after 48 hrs by agar dish diffusion method; assay type: functional; conditions: for zone of inhibition at 10000 µg/mL: MSCL 378, 48 h, read-out: DIZ
[11] = tested on: Proteus mirabilis; experiment: Antibacterial activity against Proteus mirabilis MSCL 590 at 5 mg/ml after 24 hrs by agar dish diffusion method; assay type: functional; conditions: for zone of inhibition at 5000 µg/mL: MSCL 590, 24 h, read-out: DIZ
[12] = tested on: Bacillus cereus; experiment: Antibacterial activity against Bacillus cereus MSCL 330 at 10 mg/ml after 24 hrs by agar dish diffusion method; assay type: functional; conditions: for zone of inhibition at 10000 µg/mL: MSCL 330, 24 h, read-out: DIZ
[13] = tested on: MG-22A; experiment: Induction of nitric oxide production in mouse MG-22A cells by Griess assay; assay type: functional; parameters: concentration or dose not given beside the values
[14] = tested on: Aspergillus niger; experiment: Antifungal activity against Aspergillus niger MSCL 324 after 24 hrs by broth dilution method; assay type: functional; conditions: MSCL 324, 24 h
[15] = tested on: Staphylococcus aureus; experiment: Bactericidal activity against Staphylococcus aureus MSCL 334 incubated for 24 hrs followed by colony transfer to agar plates for 24 hrs by colony counting based assay; assay type: functional; conditions: MSCL 334, 24 h, read-out: MBC99.9
[16] = tested on: Bacillus cereus; experiment: Antibacterial activity against Bacillus cereus MSCL 330 at 5 mg/ml after 24 hrs by agar dish diffusion method; assay type: functional; conditions: for zone of inhibition at 5000 µg/mL: MSCL 330, 24 h, read-out: DIZ
[17] = tested on: Aspergillus niger; experiment: Antifungal activity against Aspergillus niger MSCL 324 at 10 mg/ml after 48 hrs by agar dish diffusion method; assay type: functional; conditions: for zone of inhibition at 10000 µg/mL: MSCL 324, 48 h, read-out: DIZ
[18] = tested on: Staphylococcus aureus; experiment: Antibacterial activity against Staphylococcus aureus MSCL 334 at 5 mg/ml after 24 hrs by agar dish diffusion method; assay type: functional; conditions: for zone of inhibition at 5000 µg/mL: MSCL 334, 24 h, read-out: DIZ
[19] = tested on: Escherichia coli; experiment: Antibacterial activity against Escherichia coli MSCL 332 at 10 mg/ml after 24 hrs by agar dish diffusion method; assay type: functional; conditions: for zone of inhibition at 10000 µg/mL: MSCL 332, 24 h, read-out: DIZ
[20] = tested on: Escherichia coli; experiment: Antibacterial activity against Escherichia coli MSCL 332 after 24 hrs by broth dilution method; assay type: functional; conditions: MSCL 332, 24 h
[21] = tested on: Candida albicans; experiment: Fungicidal activity against Candida albicans MSCL 378 incubated for 24 hrs followed by colony transfer to agar plates for 24 hrs by colony counting based assay; assay type: functional; conditions: MSCL 378, 24 h, read-out: MFC99.9
[22] = tested on: Candida albicans; experiment: Antifungal activity against Candida albicans MSCL 378 at 5 mg/ml after 48 hrs by agar dish diffusion method; assay type: functional; conditions: for zone of inhibition at 5000 µg/mL: MSCL 378, 48 h, read-out: DIZ
[23] = tested on: Staphylococcus aureus; experiment: Antibacterial activity against Staphylococcus aureus MSCL 334 at 10 mg/ml after 24 hrs by agar dish diffusion method; assay type: functional; conditions: for zone of inhibition at 10000 µg/mL: MSCL 334, 24 h, read-out: DIZ
[24] = tested on: Proteus mirabilis; experiment: Antibacterial activity against Proteus mirabilis MSCL 590 at 10 mg/ml after 24 hrs by agar dish diffusion method; assay type: functional; conditions: for zone of inhibition at 10000 µg/mL: MSCL 590, 24 h, read-out: DIZ
[25] = Cytotoxicity against human HT1080 cells assessed as cell viability at 6.25 to 50 ug/ml after 72 hrs by MTT assay; assay type: functional; conditions: HT-1080, 72 h, read-out: LC50 (the source's name)
[26] = tested on: Pseudomonas aeruginosa; experiment: Antibacterial activity against Pseudomonas aeruginosa MSCL 331 at 5 mg/ml after 24 hrs by agar dish diffusion method; assay type: functional
[27] = tested on: MG-22A; experiment: Cytotoxicity against mouse MG-22A cells assessed as cell viability at 6.25 to 50 ug/ml after 72 hrs by MTT assay; assay type: functional; conditions: read-out: LC50 (the source's name)
[28] = tested on: Aspergillus niger; experiment: Antifungal activity against Aspergillus niger MSCL 324 at 5 mg/ml after 48 hrs by agar dish diffusion method; assay type: functional; conditions: for zone of inhibition at 5000 µg/mL: MSCL 324, 48 h, read-out: DIZ
[29] = tested on: Staphylococcus aureus; experiment: Antibacterial activity against Staphylococcus aureus MSCL 334 after 24 hrs by broth dilution method; assay type: functional; conditions: MSCL 334, 24 h
[30] = tested on: Pseudomonas aeruginosa; experiment: Antibacterial activity against Pseudomonas aeruginosa MSCL 331 at 10 mg/ml after 24 hrs by agar dish diffusion method; assay type: functional; conditions: for zone of inhibition at 10000 µg/mL: MSCL 331, 24 h, read-out: DIZ
[31] = tested on: Aspergillus niger; experiment: Fungicidal activity against Aspergillus niger MSCL 324 incubated for 24 hrs followed by colony transfer to agar plates for 24 hrs by colony counting based assay; assay type: functional; conditions: MSCL 324, 24 h, read-out: MFC99.9

Compound | Activity [1] [%] | MBC [2] [µg/mL] | MBC [3] [µg/mL] | MIC [4] [µg/mL] | zone of inhibition at 5000 µg/mL [5] [mm] | LC50 [6] [µM] | CC50 [7] [µM] | CC50 [8] [µM] | MIC [9] [µg/mL] | zone of inhibition at 10000 µg/mL [10] [mm] | zone of inhibition at 10000 µg/mL [12] [mm] | Activity [13] [%] | zone of inhibition at 5000 µg/mL [16] [mm] | zone of inhibition at 10000 µg/mL [17] [mm] | zone of inhibition at 5000 µg/mL [18] [mm] | zone of inhibition at 10000 µg/mL [19] [mm] | zone of inhibition at 5000 µg/mL [22] [mm] | zone of inhibition at 10000 µg/mL [23] [mm] | CC50 [25] [µM] | CC50 [27] [µM] | further results
CCCCCCCCCCOCCc1sc[n+](C)c1C.[I-] | 150 | 32 | 64 | 32 | 15 | 37.6 | 0.23 | 0.47 | 16 | 33 | 30 | 150 | 29 | 15 | 25 | 20 | 29 | 25 | 0.94 | 1.17 | zone of inhibition at 5000 µg/mL [11]: 17 mm; MIC [14]: 16 µg/mL; MBC [15]: 4 µg/mL; MIC [20]: 32 µg/mL; MFC [21]: 32 µg/mL; zone of inhibition at 10000 µg/mL [24]: 20 mm; zone of inhibition at 5000 µg/mL ([26]; MSCL 331, 24 h, read-out: DIZ): 9 mm; zone of inhibition at 5000 µg/mL [28]: 12 mm; MIC [29]: 2 µg/mL; zone of inhibition at 10000 µg/mL [30]: 15 mm; MFC [31]: 32 µg/mL
CCCCCCCCCCCOCCc1scnc1C | 100 | – | – | – | 9 | 47.1 | 47.1 | 53.8 | – | 15 | 11 | 100 | 10 | 15 | 10 | 10 | 14 | 13 | 50.5 | 53.8 | zone of inhibition at 5000 µg/mL [11]: 8 mm; zone of inhibition at 10000 µg/mL [24]: 10 mm; diameter of the inhibition zone (DIZ) [26]: inactive; zone of inhibition at 5000 µg/mL [28]: 9 mm; zone of inhibition at 10000 µg/mL [30]: 10 mm
CCCCCCCOCCc1sc[n+](C)c1C.[I-] | 200 | 256 | > 256 | > 256 | 11 | 467.3 | 20.8 | 15.6 | 256 | 20 | 13 | 100 | 12 | 11 | 20 | 16 | 13 | 21 | 15.6 | 18.2 | diameter of the inhibition zone (DIZ) [11]: inactive; MIC [14]: > 256 µg/mL; MBC [15]: 64 µg/mL; MIC [20]: 256 µg/mL; MFC [21]: > 256 µg/mL; diameter of the inhibition zone (DIZ) [24]: inactive; diameter of the inhibition zone (DIZ) [26]: inactive; diameter of the inhibition zone (DIZ) [28]: inactive; MIC [29]: 16 µg/mL; diameter of the inhibition zone (DIZ) [30]: inactive; MFC [31]: > 256 µg/mL
GENTAMICIN | – | – | – | – | – | – | – | – | – | – | – | – | – | – | – | – | – | – | – | – | inhibition zone (IZ) [5]: 27 mm; diameter of the inhibition zone (DIZ) [10]: inactive; inhibition zone (IZ) [11]: 28 mm; inhibition zone (IZ) [12]: 36 mm; inhibition zone (IZ) [16]: 35 mm; diameter of the inhibition zone (DIZ) [17]: inactive; inhibition zone (IZ) [18]: 30 mm; inhibition zone (IZ) [19]: 30 mm; diameter of the inhibition zone (DIZ) [22]: inactive; inhibition zone (IZ) [23]: 32 mm; inhibition zone (IZ) [24]: 31 mm; inhibition zone (IZ) [26]: 31 mm; diameter of the inhibition zone (DIZ) [28]: inactive; inhibition zone (IZ) [30]: 32 mm
